Test results as given in patent US20060205809A1, “Pharmaceutical preparation containing palladium complex compounds and the uses thereof for treating cancer and autoimmune disease” (priority 2002, published 2006).
pIC50: −log10 of the molar value. Like-named read-outs stand apart in the source and are kept apart here.

Experiments:
SK-MEL 25 (melanoma) = assay: Cytotoxicity assay, 2 h drug exposure at pH 6.8 or 7.4, crystal violet staining; format: cell-based, human; details: then 48 h
Experimental: (§1) The Pd-complexes were dissolved in acetone (1 mg/ml stock solution). Human cancer cell lines SK-MEL 25 (melanoma) and CALU-6 (lung cancer) were used for the determination of the cytotoxic activity of Pd-complexes. For comparison, the well known anti-tumor drugs cisplatin and corresponding platinum complexes were included. Cells were seeded at a density of 2×10^6 cells/96 well plate. After 24 h, tissue culture medium was removed and fresh medium supplemented with 10% fetal calf serum and 100 units/ml penicillin/streptomycin containing either 2.2 g/l (pH 7.4) or 0.85 g/l (pH 6.8) NaHCO3 was added. After 1 hour of equilibration in an atmosphere containing 5% CO2, drugs were added at various concentrations (50, 25, 12.5, 6.25, 3.1, 1.6, 0.8 μg/ml) in quadruplicate. Untreated cultures served as controls. Two hours later, the culture medium was replaced with 0.1 ml of fresh tissue culture medium (pH 7.4, 10% fetal calf serum). Culture plates were then incubated for 48 h (SK-MEL 25) or 72 h (Calu-6) at 37° C. Then, cells were fixed with 3% formaldehyde and stained with 1% crystalviolet. The number of viable cells is proportional to the amount of bound cristalviolet. Therefore, the relative cell number could be determined at an Antos 2001 ELISA reader (550 nm). Dose response curves were established from the OD data and the concentration at which the cell number was reduced to 50% of the control (IC50) was determined.

CALU-6 (lung cancer) = assay: as above; format: cell-based, human; details: then 72 h
Experimental: as §1

[1] = SK-MEL 25, pH 6.8, 2 h drug exposure, read-out: IC50-values, SK-MEL 25, pH 6.8
[2] = SK-MEL 25, pH 7.4, 2 h drug exposure, read-out: IC50-values, SK-MEL 25, pH 7.4
[3] = CALU-6, pH 6.8, 2 h drug exposure, read-out: IC50-values, CALU-6, pH 6.8
[4] = CALU-6, pH 7.4, 2 h drug exposure, read-out: IC50-values, CALU-6, pH 7.4

Structure (SMILES)	pIC50 (SK-MEL 25 (melanoma); [1])	pIC50 (SK-MEL 25 (melanoma); [2])	pIC50 (CALU-6 (lung cancer); [3])	pIC50 (CALU-6 (lung cancer); [4])
CCOC(=S)[S][Pd][S]C(=S)OCC [compound 3, Bis(O-ethyl-dithiocarbonato)palladium(II)]	5.30	4.85	5.70	5.10
CCC(C)COC(=S)[S][Pd][S]C(=S)OCC(C)CC (stereo not shown) [compound 4, Bis(O-(2-methyl)-butyl-dithiocarbonato)palladium(II)]	5.22	5.05	5.70	5.22
COC(=S)[S-].COC(=S)[S-].[Pd+2] [compound 7, Bis(O-methyl-dithiocarbonato)palladium(II)]	5.35	5.21	5.80	5.35
N.N.[Cl][Pt][Cl] [Cisplatin, reference compound]	4.60	4.60	5.20	5.20
CC(C)OC(=S)[S-].CC(C)OC(=S)[S-].[Pt+2] [Bis(O-isopropyl-dithiocarbonato)platin, reference compound]	5.22	4.92	5.22	5.00
CC(C)OC(=S)[S][Pd][S]C(=S)OC(C)C [compound 2, Bis(O-isopropyl-dithiocarbonato)palladium(II)]	6.10	5.89	6.22	5.80
S=C([S-])OC1CCCCC1.S=C([S-])OC1CCCCC1.[Pd+2] [compound 1, Bis(O-cyclohexyl-dithiocarbonato)palladium(II)]	5.22	5.00	5.70	5.40
CCCCOC(=S)[S-].CCCCOC(=S)[S-].[Pd+2] [compound 5, Bis(O-butyl-dithiocarbonato)palladium(II)]	6.00	5.51	6.00	5.60
CCCCCCOC(=S)[S-].CCCCCCOC(=S)[S-].[Pd+2] [compound 6, Bis(O-hexyl-dithiocarbonato)palladium(II)]	5.00	5.00	5.51	5.20
CCOC(=S)[S-].CCOC(=S)[S-].[Pt+2] [Bis(O-ethyl-dithiocarbonato) platin, reference compound]	4.68	4.35	4.92	4.55
